Measurements reported in US20070275977A1, “N-OXIDES OF PYRIDYLMETHYL -PIPERAZINE AND -PIPERIDINE DERIVATIVES” (priority 2006, published 2007).
pKi: −log10 of the molar value. Entries after “also recorded” stand apart in the source; their conditions may differ. Read-outs that look alike come from different tables or passages of the source.

Tests used:
[1] = Pharmacological profile in vivo (overall statement)
Experimental: (§1) Lower lip retraction, an in vivo animal model for serotonin 5-HT1A receptor agonistic activity, was measured according to the method described by Berendsen (1989); Apomorphine-induced climbing behaviour in mice, an in vivo animal model for dopamine-D2 receptor antagonistic activity, was determined according to the method described by Costall (1978).

[2] = Partition coefficient, experimental (Log P); assay type: physicochemical; settings: at pH 7.0
[3] = Plasma concentrations in mice after i.v. or p.o. administration, blood analyzed by LC-MS; assay type: in vivo; settings: piperazine-N-oxide administered
Experimental: (§2) The LC-MS system consists of 2 Perkin elmer series 200 micro pumps. The pumps were connected to each other by a 50 pI tee mixer, and connected to a Gilson 215 auto sampler. The method was as follows:
(§3) The auto sampler was connected to a Waters Atlantis C18 30*4.6 mm column with 3 μm particles. The column was thermo stated in a Perkin Elmer series 200 column oven at 40° C. The column was connected to a Perkin Elmer series 200 UV meter with a 2.7 μl flowcel. The wavelength was set to 254 nm. The UV meter was connected to a Sciex API 150EX mass spectrometer. The mass spectrometer had the following parameters: Scanrange:150-900 a.m.u., polarity: positive; scan mode: profile; resolution Q1: UNIT; step size: 0.10 a.m.u.; time per scan: 0.500 sec; NEB: 10; CUR: 10; IS: 5200; TEM: 325; DF: 30; FP: 225 and EP: 10. The light scattering detector was connected to the Sciex API 150. The light scattering detector was a Sedere Sedex 55 operating at 50° C. and 3 bar N2. The complete system was controlled by a G3 powermac.
For oral (p.o.) administration: to the desired quantity (0.5-5 mg) of the solid test compound in a glass tube, some glass beads were added and the solid was milled by vortexing for 2 minutes. After addition of 1 ml of a solution of 1% methylcellulose in water and 2% (v/v) of Poloxamer 188 (Lutrol F68), the compound was suspended by vortexing for 10 minutes. The pH was adjusted to 7. […]

[4] = target: T1, Serotonin-5-HT1A (Homo sapiens, UniProt P08908); test: In vitro receptor affinity, Serotonin-5-HT1A; assay type: binding; settings: radioligand [3H]-8-OH-DPAT, read-out: K1 (in vitro receptor affinity)
T1 sequence (P08908 1-422): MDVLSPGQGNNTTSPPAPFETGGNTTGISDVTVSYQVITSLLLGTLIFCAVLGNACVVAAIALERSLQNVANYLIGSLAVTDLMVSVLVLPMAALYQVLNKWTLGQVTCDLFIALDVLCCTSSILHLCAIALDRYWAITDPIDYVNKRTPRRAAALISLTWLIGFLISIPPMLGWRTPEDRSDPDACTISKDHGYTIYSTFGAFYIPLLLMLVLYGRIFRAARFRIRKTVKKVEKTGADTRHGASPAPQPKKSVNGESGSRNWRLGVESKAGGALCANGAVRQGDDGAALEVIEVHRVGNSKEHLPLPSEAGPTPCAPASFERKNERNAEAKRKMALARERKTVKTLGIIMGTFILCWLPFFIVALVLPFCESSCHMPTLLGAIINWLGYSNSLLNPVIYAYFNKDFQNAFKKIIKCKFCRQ
Experimental: (§4) ln vitro affinity for neurotransmitter receptors: The binding data collected below were either obtained by CE REP (128, rue Danton, 92500 Rueil-Malmaison, France) or at Solvay Pharmaceuticals B.V. (C. J. van Houtenlaan 36, 1381 CP Weesp, The Netherlands), using well documented standard procedures. The affinities for dopamine-D2 and 5-HT1A receptors for instance, were measured as described by Creese (1997) and Gozlan (1983) respectively.

[5] = Brain concentrations in mice after i.v. or p.o. administration, LC-MS; assay type: in vivo; settings: for concentration at 0.17 h / concentration at 0.5 h / concentration at 1 h / concentration at 3 h / concentration at 7 h / concentration at 24 h: mouse, brain, read-out: piperazine-N-ox analyzed in brain
Experimental: as §2, §3
(§5) For oral (p.o.) administration: to the desired quantity (0.5-5 mg) of the solid test compound in a glass tube, some glass beads were added and the solid was milled by vortexing for 2 minutes. After addition of 1 ml of a solution of 1% methylcellulose in water and 2% (v/v) of Poloxamer 188 (Lutrol F68), the compound was suspended by vortexing for 10 minutes. The pH was adjusted to 7. Remaining particles in the suspension were further suspended by using an ultrasonic bath.
For intravenous (i.v.) administration: compounds were dissolved in physiological saline (0.9% NaCl) and the pH was adjusted to 7.
Data were averaged (n=3), and collected in table 4.

[6] = tested on: neurotransmitter receptors; test: Pharmacological profile in vitro (overall statement)
Experimental: as §4
In vitro (ant)agonistic activity at human D2 receptors and 5-HT1A receptors was measured according to the methods described by Solomon (1974) and Weiss (1985) respectively, on the formation of adenylate cyclase in CHO cell-lines expressing these cloned receptors.

[7] = tested on: Lower lip retraction; test: Lower lip retraction; assay type: in vivo; settings: po, read-out: Lower Lip Retraction: ED50
Experimental: as §5, §1

[8] = tested on: Apomorphine-induced climbing behaviour in mice; test: Antagonism of apomorphine-induced climbing behaviour in mice; assay type: in vivo; settings: Mus musculus, po, read-out: Antagon. apomorphine ind. climbing: ED50
Experimental: as §5, §1

[9] = target: Dopamine-D2 (Homo sapiens, UniProt P14416); test: In vitro receptor affinity, Dopamine-D2; assay type: binding; settings: radioligand [3H]-spiperone, read-out: K1 (in vitro receptor affinity)
Experimental: as §4

[10] = iv, 0.5 mg/kg i.v. of administered compound
[11] = po, 5 mg/kg p.o. of administered compound

Sequence of Dopamine-D2 (P14416 whole entry): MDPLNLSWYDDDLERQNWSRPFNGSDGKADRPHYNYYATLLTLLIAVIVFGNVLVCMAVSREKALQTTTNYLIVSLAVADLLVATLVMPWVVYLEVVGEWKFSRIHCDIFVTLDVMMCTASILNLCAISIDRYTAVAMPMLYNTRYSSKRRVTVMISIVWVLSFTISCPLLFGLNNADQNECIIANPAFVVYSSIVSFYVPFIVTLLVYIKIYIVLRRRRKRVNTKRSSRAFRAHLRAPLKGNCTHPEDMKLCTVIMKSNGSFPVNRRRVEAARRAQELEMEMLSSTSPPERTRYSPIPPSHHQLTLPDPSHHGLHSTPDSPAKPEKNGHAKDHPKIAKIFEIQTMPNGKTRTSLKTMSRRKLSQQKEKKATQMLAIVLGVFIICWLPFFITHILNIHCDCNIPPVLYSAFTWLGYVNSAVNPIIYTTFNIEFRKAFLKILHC

**Q.** With `[O-][n+]1cc(C[N+]2([O-])CCN(c3cccc4c3OCCO4)CC2)cc(-c2ccc(F)cc2)c1` [SLV313-bis-N-oxide, 4-(2,3-dihydro-benzo[1,4]dioxin-5-yl-1-[5-4-fluorophenyl]-1-oxy-pyridin-3-ylmethyl)piperazine-1-oxide] as the compound, how does the “potency relative to corresponding parent molecule, the pyridine N-oxide” value ([1]; stated by analogy) read?
**A.** The value was “equipotent”.

**Q.** What does the source list for `[O-][N+]1(Cc2cncc(-c3ccc(F)cc3)c2)CCN(c2cccc3c2OCCO3)CC1` [piperazine N-oxide]?
**A.** logP [2]: 1.7; time at which plasma concentrations of piperazine-N-oxide and parent molecule cross [3]: within half an hour; pharmacological profile/potency in vivo relative to SLV313 ([1]; in vivo): equipotent; pKi [4]: 7.60; detection of administered compound in brain ([5]; i.v. or p.o.): hardly detected in brain; concentration at 0.17 h [5, 10]: 3.1 ng/g; concentration at 0.5 h [5, 10]: 4.4 ng/g; concentration at 1 h [5, 10]: 0 ng/g; concentration at 3 h [5, 10]: 0 ng/g; concentration at 7 h [5, 10]: 0 ng/g; concentration at 24 h [5, 10]: 0 ng/g; concentration at 0.17 h [5, 11]: 2.9 ng/g; concentration at 0.5 h [5, 11]: 2.6 ng/g; concentration at 1 h [5, 11]: 0 ng/g; concentration at 3 h [5, 11]: 0 ng/g; concentration at 7 h [5, 11]: 0 ng/g; concentration at 24 h [5, 11]: 0 ng/g; pharmacological profile/activity in vitro relative to parent SLV313 [6]: virtually inactive; also recorded: nearly inactive; ED50 [7]: 10 mg/kg; melting point: 181 to 182 °C; ED50 [8]: 0.3 mg/kg; pKi [9]: < 6.00
